Measurements as given in patent publication US20260102422A1, “4'-HALOGEN CONTAINING NUCLEOTIDE AND NUCLEOSIDE THERAPEUTIC COMPOSITIONS AND USES RELATED THERETO” (priority 2019, published 2026).

Assays:
EEEV = assay: microbe, parasite or virus in culture; type: cell-based; conditions: Eastern equine encephalitis virus, Vero 76
Lassa fever virus = assay: organism not typed; type: cell-based
Junin virus = assay: microbe, parasite or virus in culture; type: cell-based; conditions: Mammarenavirus juninense
Pichinde virus = type: cell-based
Poliovirus = assay: microbe, parasite or virus in culture; type: cell-based; conditions: Enterovirus C, Vero 76
Enterovirus-68 = Enterovirus-68 antiviral assay; type: cell-based; conditions: strain US/KY/14-18953; RD cells
Measles = Measles antiviral assay; type: cell-based, measles virus; conditions: Measles morbillivirus; strain CC; Vero 76 cells
Mayaro = Mayaro antiviral assay; type: cell-based; conditions: strain BEAR 505411; Vero 76 cells
Machupo = assay: microbe, parasite or virus in culture; type: cell-based, Machupo virus; conditions: Mammarenavirus machupoense
Lujo = assay: microbe, parasite or virus in culture; type: cell-based, Lujo virus; conditions: Mammarenavirus lujoense
MDCK cells = assay: Cytotoxicity (CC50) in MDCK cells; type: cell-based; conditions: Canine, Kidney, n = 6
MA-104 cells = assay: Cytotoxicity (CC50) in MA-104 cells; type: cell-based; conditions: MA-104, Monkey, Kidney, n = 2
[1] = Cytotoxicity (CC50) in RD cells; type: cell-based, Human; conditions: human, RD cells, alongside antiviral assays
RD cells = assay: Cytotoxicity (CC50) in RD cells; type: cell-based, Human; conditions: RD, Human, Muscle
RAW264.7 cells = assay: Cytotoxicity (CC50) in RAW264.7 cells; type: cell-based; conditions: RAW 264.7, Mouse, Macrophage
HG23 cells = assay: Cytotoxicity (CC50) in HG23 cells; type: cell-based; conditions: HG23, Human
Huh-7 cells = assay: Cytotoxicity (CC50) in Huh-7 cells; type: cell-based; conditions: Huh7, Human, Liver, n = 3
[2] = Cytotoxicity (CC50) in HeLa cells; type: cell-based; conditions: human, alongside antiviral assays
CEM cells = assay: Cytotoxicity (CC50) in CEM cells; type: cell-based; conditions: Human, Lymphoid
A-204 cells = assay: Cytotoxicity (CC50) in A-204 cells; type: cell-based; conditions: A204, Human, Muscle
A549 cells = assay: Cytotoxicity (CC50) in A549 cells; type: cell-based; conditions: A549, Human, Lung
BxPC-3 cells = assay: Cytotoxicity (CC50) in BxPC-3 cells; type: cell-based; conditions: BxPC-3, Human, Pancreas
H9c2 cells = assay: Cytotoxicity (CC50) in H9c2 cells; type: cell-based; conditions: H9c2, Rat, Heart
IEC-6 cells = assay: Cytotoxicity (CC50) in IEC-6 cells; type: cell-based; conditions: IEC-6, Rat, Small intestine
HepG2/Gal* cells = assay: Cytotoxicity (CC50) in HepG2/Gal* cells; type: cell-based; conditions: Human
HBTECs = assay: Cytotoxicity (CC50) in HBTECs; type: cell-based; conditions: Human, Respiratory Tract
BEAS-28 cells = assay: Cytotoxicity (CC50) in BEAS-28 cells; type: cell-based; conditions: BEAS-28, Human, Lung
BEAS-28/Gal* cells = assay: Cytotoxicity (CC50) in BEAS-28/Gal* cells; type: cell-based; conditions: Human, Lung
MDCK/Gal* cells = assay: Cytotoxicity (CC50) in MDCK/Gal* cells; type: cell-based; conditions: Canine, Kidney
BHK-T7 cells = assay: Cytotoxicity (CC50) in BHK-T7 cells; type: cell-based; conditions: BHK-T7, Hamster, Kidney
[3] = Ferret plasma PK, single dose; type: in vivo; conditions: ferrets; for AUC(0-inf) / Cmax / Tmax / half-life: plasma
[4] = Guinea pig plasma PK, single dose; type: in vivo; conditions: Guinea pigs
Vero cells = conditions: green monkey
[5] = Mouse plasma PK, single dose; conditions: for AUC-INF/Dose / Cmax/Dose: CD-1 mice; for AUC(0-inf) / Cmax / half-life / Tmax: female, ICR (CD-1), mouse, plasma, po
Plasma stability, rat = conditions: drug 1.00 μM
Plasma stability, human = conditions: drug 1.00 μM
Plasma stability, mouse = conditions: drug 1.00 μM
[6] = Liver microsome stability, rat; conditions: rat liver microsomes, drug 1.00 μM
[7] = Liver microsome stability, human; conditions: human liver microsomes, drug 1.00 μM
[8] = Liver microsome stability, mouse; conditions: mouse liver microsomes, drug 1.00 μM
[9] = guinea pig, 50 mg/kg PO, plasma

O=c1ccn([C@@H]2O[C@](F)(CO)[C@@H](O)[C@H]2O)c(=O)[nH]1 [EIDD-02749, 1-[(2R, 3R, 4S, 5S)-5-fluoro-3,4-dihydroxy-5-(hydroxymethyl)tetrahydrofuran-2-yl]pyrimidine-2,4-dione]
EC90 (EEEV): 1790 nM | EC50 (Lassa fever virus; HeLa): 450 nM | EC50 (Lassa fever virus; Huh-7): 900 nM | EC50 (Lassa fever virus; Vero C1008): 360 nM | EC50 (Junin virus; HeLa): 20 nM | EC50 (Junin virus; Huh-7): 250 nM | EC50 (Junin virus; Vero C1008): 80 nM | EC90 (Pichinde virus): 320 nM | EC90 (Poliovirus): 3.8 µM | EC90 (Enterovirus-68): 1060 nM | EC50 (Measles): 1060 nM | EC50 (Mayaro): 2810 nM | EC90 (Mayaro): 9.5 µM | EC50 (Machupo; HeLa): 70 nM | EC50 (Machupo; Huh-7): 310 nM | EC50 (Machupo; Vero C1008): 1490 nM | EC50 (Lujo; HeLa): 70 nM | EC50 (Lujo; Huh-7): 1320 nM | EC50 (Lujo; Vero C1008): 830 nM | CC (MDCK cells): >380 µM | CC (MA-104 cells): >380 µM | CC50 [1]: 228 µM | CC (RD cells): >380 µM | CC (RAW264.7 cells): >100 µM | CC (HG23 cells): 100 µM | CC (Huh-7 cells): >400 µM | CC50 [2]: 77 µM | CC (CEM cells): 107 µM | CC (A-204 cells): >400 µM | CC (A549 cells): >400 µM | CC (BxPC-3 cells): >400 µM | CC (H9c2 cells): >400 µM | CC (IEC-6 cells): >400 µM | CC (HepG2/Gal* cells): >400 µM | CC (HBTECs): >500 µM | CC (BEAS-28 cells): >500 µM | CC (BEAS-28/Gal* cells): 250 µM | CC (MDCK/Gal* cells): 444 µM | CC (BHK-T7 cells): >500 µM | AUC-INF/Dose ([3]; 15 mg/kg PO): 2691.2 ± 483.7 h*kg*nmol/mL/mmol | Cmax/Dose ([3]; 15 mg/kg PO): 608.2 ± 114.0 kg*nmol/mL/mmol | AUC(0-inf) ([3]; 15 mg/kg PO): 154 ± 27.6 µM·h | Cmax ([3]; 15 mg/kg PO): 34.8 ± 6.5 µM | Tmax ([3]; 15 mg/kg PO): 1 h | half-life ([3]; 15 mg/kg PO): 358 ± 21 min | AUC-INF/Dose ([3]; 50 mg/kg PO): 2166.1 ± 409.8 h*kg*nmol/mL/mmol | Cmax/Dose ([3]; 50 mg/kg PO): 332.0 ± 57.5 kg*nmol/mL/mmol | AUC(0-inf) ([3]; 50 mg/kg PO): 413 ± 78.1 µM·h | Cmax ([3]; 50 mg/kg PO): 63.3 ± 10.9 µM | Tmax ([3]; 50 mg/kg PO): 2.3 ± 1.5 h | half-life ([3]; 50 mg/kg PO): 258 ± 48 min | AUC0->∞/Dose ([4]; 5 mg/kg IV): 5639.4 ± 234.2 h · kg · nmol/mL · mmol | Cmax/Dose ([4]; 5 mg/kg IV): 7525.0 ± 6050.9 kg · nmol/mL · mmol | AUC0->∞/Dose ([4]; 5 mg/kg PO): 4869.4 ± 841.9 h · kg · nmol/mL · mmol | Cmax/Dose ([4]; 5 mg/kg PO): 1054.5 ± 118.8 kg · nmol/mL · mmol | VD ([4]; 5 mg/kg PO): 13.0 ± 1.6 L/kg | AUC0->∞/Dose ([4]; 50 mg/kg PO): 2923.1 ± 209.6 h · kg · nmol/mL · mmol | Cmax/Dose ([4]; 50 mg/kg PO): 453.0 ± 51.2 kg · nmol/mL · mmol | VD ([4]; 50 mg/kg PO): 14.9 ± 1.9 L/kg | clearance ([4]; guinea pig, plasma, 5 mg/kg IV): 3 mL/min/kg | AUC(0-inf) ([4]; guinea pig, 5 mg/kg IV, plasma): 108 ± 4.5 µM·h | Cmax ([4]; guinea pig, 5 mg/kg IV, plasma): 144 ± 115 µM | Tmax ([4]; guinea pig, 5 mg/kg IV, plasma): 0.083 h | half-life ([4]; guinea pig, 5 mg/kg IV, plasma): 558 ± 78 min | AUC(0-inf) ([4]; guinea pig, 5 mg/kg PO, plasma): 92.9 ± 16.1 µM·h | Cmax ([4]; guinea pig, 5 mg/kg PO, plasma): 20.1 ± 2.3 µM | Tmax ([4]; guinea pig, 5 mg/kg PO, plasma): 1.3 ± 0.5 h | half-life ([4]; guinea pig, 5 mg/kg PO, plasma): 1210 ± 138 min | AUC(0-inf) [4, 9]: 558 ± 39.9 µM·h | Cmax [4, 9]: 86.4 ± 9.8 µM | Tmax [4, 9]: 1.8 ± 0.5 h | half-life [4, 9]: 5180 ± 588 min | CC (Vero cells): >380 µM | AUC-INF/Dose ([5]; 10 mg/kg IP): 514.5 h*kg*nmol/mL/mmol | Cmax/Dose ([5]; 10 mg/kg IP): 202.1 kg*nmol/mL/mmol | AUC-INF/Dose ([5]; 50 mg/kg PO): 1215.0 h*kg*nmol/mL/mmol | Cmax/Dose ([5]; 50 mg/kg PO): 184.3 kg*nmol/mL/mmol | AUC-INF/Dose ([5]; 150 mg/kg PO): 685.8 h*kg*nmol/mL/mmol | Cmax/Dose ([5]; 150 mg/kg PO): 76.2 kg*nmol/mL/mmol | Cmax/Dose ([5]; 500 mg/kg PO): 39.9 kg*nmol/mL/mmol | AUC(0-inf) ([5]; 1.5 mg/kg): 6.58 µM·h | Cmax ([5]; 1.5 mg/kg): 1.2 µM | half-life ([5]; 1.5 mg/kg): 1070 min | AUC(0-inf) ([5]; 5 mg/kg): 28.6 µM·h | Cmax ([5]; 5 mg/kg): 7.1 µM | half-life ([5]; 5 mg/kg): 912 min | AUC(0-inf) ([5]; 15 mg/kg): 86.9 µM·h | Cmax ([5]; 15 mg/kg): 23.3 µM | half-life ([5]; 15 mg/kg): 1220 min | half-life ([5]; 50 mg/kg): 497 min | Tmax ([5]; 150 mg/kg): 1 h | half-life ([5]; 150 mg/kg): 508 min | Tmax ([5]; 500 mg/kg): 1 h

O=c1ccn([C@@H]2O[C@](F)(COP3(=O)OCc4ccccc4O3)[C@@H](O)[C@H]2O)c(=O)[nH]1 (stereo partly shown) [EIDD-02838]
half-life (Plasma stability, rat): <1 min | max [2749] (Plasma stability, rat; EIDD-2749 formed): 0.0341 µM | half-life (Plasma stability, human; 37° C): 12 min | max [2749] (Plasma stability, human; EIDD-2749 formed): 0.0521 µM | half-life (Plasma stability, mouse): 1 min | max [2749] (Plasma stability, mouse; EIDD-2749 formed): 0.0216 µM | half-life [6]: 8 min | max [2749] ([6]; EIDD-2749 formed): 0.218 µM | half-life [7]: 7 min | max [2749] ([7]; EIDD-2749 formed): 0.130 µM | half-life [8]: 7 min | max [2749] ([8]; EIDD-2749 formed): 0.0347 µM

CC(C)C(=O)OC[C@@]1(F)OC(n2ccc(=O)[nH]c2=O)C(O)[C@@H]1O (stereo partly drawn) [EIDD-2947, [(2S, 3S)-5-(2,4-dioxopyrimidin-1-yl)-2-fluoro-3,4-dihydroxy-tetrahydrofuran-2-yl]methyl 2-methylpropanoate]
half-life [7]: 44 min
